Reference: patent publication US20140256663A1, “Amphotericin Analogous Compounds and Pharmaceutical Compositions Containing Them” (CENTRO DE INVESTIGACION Y DE ESTUDIOS AVANZADOS DEL …, priority 2010, published 2014)
In brackets after ≈: the same amount, converted by molar mass. Entries after “also recorded” stand apart in the source; their conditions may differ.

How the values were obtained:
[1] = system: Saccharomyces cerevisae FY833(SC) cells; assay: Viability of Saccharomyces cerevisae FY833 (SC) cells at various concentrations; format: cell-based; conditions: FIG. 1, various concentrations; listed as amide 7
Description: All derivatives were tested for antibiotic activity in yeast cultures of S. cerevisiae.

[2] = system: Saccharomyces cerevisae FY833(SC) cells compared with human renal cells 293Q; conditions: FIG. 3
[3] = system: human renal cells 293Q (ATCC CLR-1573); assay: MTT cytotoxicity on human renal cells 293Q
Description: For cytotoxicity studies human kidney cells (ATCC No. CRL-1573) were used. The cells were cultured with Minimum Essential Medium (MEM) (GIBCO BRL), supplemented with 10% fetal bovine serum (FBS) (GIBCO BRL), 2 mM 1-glutamine (GIBCO BRL), 1.5 gL Na2HCO3 (Sigma Chemical Co), 0.1 mM nonessential amino acids (Sigma Chemical Co), and 1 mM sodium pyruvate (In vitro, S.A.). The technique of bromide of 3(4,5-dimethylthiazol-2-yl)-2,5-diphenyl tetrazolium (MTT) (Sigma Chemical Co) was applied; a technique which is based on the conversion of dye to an insoluble precipitate called formazan. This test is used as an indicator of mitochondrial function in living cells that measures the metabolic capacity in cells and serves as an indicator of cytotoxicity. […] (Mosman […], Immunol Methods, 65: 55-63). The cytoxicity test consisted of planting 10,000 cells per well in 96-well plates (Corning Incorporated Costar) in MEM and incubate them (Nuaire us autoflow CO2 water-jacketed incubator) during 24 h at 37° C. and 5% CO2. […] After incubation, cells were treated and incubated anew for 24 h. After this time the medium was aspirated carefully and replaced with 200 μL of fresh medium, and 50 μL of MTT was added for a total volume of 250 μl. They were then incubated for 4 hours in the above conditions. After that time the medium with MTT was carefully removed and 200 μL of DMSO and 25 μL of Sorensen buffer (0.1 M glycine+0.1 M NaCl at pH 10.5) were added to each well. The plate was then mixed until the formazan crystals dissolved, and it was finally read in a plate reader (Microplate Limaning System Ultramark, Biorad) at a wavelength of 550 nm.
For the tests, we used human renal ephythelial cells (293Q) (ATCC Catalog No. CRL-1573). The cells were cultured with Minimum Essential Medium (MEM) (GIBCO BRL) supplemented with 10% fetal bovine serum (FBS) (GIBCO BRL), 2 mM L-glutamine (GIBCO BRL), 1.5 g/L Na2HCO3 (Sigma Chemical Co), 0.1 mM nonessential amino acids (Sigma Chemical Co), and 1 mM sodium pyruvate (In vitro, S.A.). For cytoxicity tests, we applied the technique of bromide 3(4,5-dimethylthiazol-2-yl)-2,5-diphenyl tetrazolium (MTT) (Sigma Chemical Co), which is based on the conversion of the dye to an insoluble precipitate called formazan. This test is used as an indicator of mitochondrial function in living cells which measures the metabolic capacity in cells and serves as an indicator of cytotoxicity. (Wang, H. Z., Chang, C. H., Lin, C. P., Tsai, M. C). Using MTT viability assay to test the cytotoxicity of antibiotics and steroid to cultured porcine corneal endothelial cells. J. Ocul. Pharmacol. Ther. 1996; 12: 35-43). For the essay 10,000 cells were seeded per well in 96-well plates (Corning Incorporated Costar) in the medium already indicated and incubated for 24 h at 37° C. and 5% CO2. […] After incubation, cells were treated and incubated again for 24 h. The medium was carefully aspirated and replaced with 200 μl fresh medium, adding 50 μl MTT solution for a total volume of 250 μl. They were then incubated for 4 hours in the above conditions. The medium was carefully removed with MTT and 200 μl DMSO and 25 μl Sorense buffer (0.1 M glycine+0.1 M NaCl at pH 10.5) was added to each well. Then the plate was mixed until the formazan crystals dissolved; it was finally read in a reader plate (Microplate Limaning System Ultramark, Biorad) at a wavelength of 550 nm.

[4] = 10 μM AmB; from Venegas et al.; cited from earlier work
[5] = system: Candida albicans ATCC 10231; assay: Antifungal activity in vitro by flow cytometry, Candida albicans ATCC 10231; format: cell-based; conditions: ATCC10231, 24 h at 37° C., read-out: CF50 Candida albicans ATCC 10231
Description: The antifungal activity of the polyene macrolide derivate of the present invention was determined by flow cytometry method earlier described (Pinto et al., J. Medical Microbiology, 2009; 58, 1454-1462; Pina-Vaz and Rodriguez, Methods Mol. Biol. 2010; 638:281-289). For the test two strains of Candida albicans (ATCC 10231 and 752) and Candida kruzei were used. A cellular suspension of 1×10^6 UFC/mL was used, which has sown in 96-well plates. […] As controls were used: untreated yeasts (control of living cells), yeasts exposed to UV radiation (arrest, inhibition of proliferation), and yeasts exposed at temperature of 100° C. (dead yeasts). Cells were collected by centrifugation at 10,000×g for 10 min, they were washed once in phosphate buffer. […] of propidium iodide 0.1 mg/mL were added to the cell suspension. It was incubated during 30 minutes at room temperature and protected from light. Finally, the samples were analyzed by flow cytometry (Becton-Dickinson Facsc Calibur, laser argon 480 nm). The intrinsic parameters and fluorescence in the FL2 channel (yellow/orange fluorescence) for FUN and channel FL3 (red fluorescence, filter 630 nm) for propidium iodide were acquired and registered on a logarithmic scale for a minimum of 7500 events per sample. For data analysis, the quadrants were adjusted in a plot of data lines of fluorescence intensity of samples. […] These quadrants were used to quantify the percentile of cells showing altered fluorescence compared to drug-free controls.

[6] = comparison value, source not given; cited from earlier work
Candida albicans DSY294 = conditions: Carreira E.; cited from earlier work

| SMILES | inhibitory capacity / potency on SC cells compared to AmB [1] | advantage of selectivity over AmB (factor) [2] | collateral cytotoxicity on human renal cells 293Q compared to AmB ([3]; FIG. 2, FIG. 8, listed as amide 7) | DT50 CitE50 ([3]; human renal cells 293Q, 24 h) [µM] | Opening probability, channel type I [4] [%] | Opening probability, channel type II [4] [%] | Opening probability, channel type III [4] [%] | Opening probability, channel type IV [4] [%] | Opening probability, channel type V [4] [%] | Opening probability, channel type VI [4] [%] | IC50 [5] [nM] | solubility of AmB [6] [µg/mL] | MIC-Candida albicans DSY294 (Candida albicans DSY294) [µM] | DT50 CitE50 ([3]; human, 24 h) [µM] | MIC50 Kidney cells (293Q) ([3]; human, 24 h) [µM] |
| --- | --- | --- | --- | --- | --- | --- | --- | --- | --- | --- | --- | --- | --- | --- | --- |
| COC(=O)[C@@H](Cc1c[nH]c2ccccc12)NC(=O)[C@@H]1C(O)C[C@@]2(O)C[C@@H](O)C[C@@H](O)[C@H](O)CC[C@@H](O)C[C@@H](O)CC(=O)OC(C)C(C)[C@H](O)C(C)/C=C/C=C/C=C/C=C/C=C/C=C/C=C/[C@H](OC3OC(C)C(O)C(N)C3O)CC1O2 (stereo partly drawn) [A-7, N-(D)-tryptophanamide of AmB] | the most similar; also recorded: the highest power of the derivatives | 4 | the lowest cytoxicity; also recorded: low cytoxicity | 220 | – | – | – | – | – | – | – | – | – | – | – |
| C[C@@H]1[C@H](O)[C@@H](C)/C=C/C=C/C=C/C=C/C=C/C=C/C=C/[C@H](O[C@@H]2O[C@H](C)[C@@H](O)[C@H](N)[C@@H]2O)C[C@@H]2O[C@](O)(C[C@@H](O)C[C@@H](O)[C@H](O)CC[C@@H](O)C[C@@H](O)CC(=O)O[C@H]1C)C[C@H](O)[C@H]2C(=O)O [AmB, Amphotericin B] | – | – | – | – | 0.59 | 0.26 | 0.08 | 4.06 | 1.81 | 0.93 | 200 | 10 | 0.4 (≈ 0.37 µg/mL) | 9.7 | 9.7 (≈ 8.96 µg/mL) |
